The results in this text go back to PMC10860144, “Exploring the Dispersion and Electrostatic Components in Arene–Arene Interactions between Ligands and G4 DNA to Develop G4-Ligands” (Journal of Medicinal Chemistry, 2024).

One assay relates to HeLa cells. Put plainly: HeLa cell viability (PrestoBlue). The class given is cell-based. The following applies: Homo sapiens, 48 h. The method, then:
(§1) Cell viability was measured using the PrestoBlue cell viability reagent (Invitrogen) according to the manufacturer’s recommendations.
For HeLa cells, 5000 cells/well were seeded in complete medium on 96-wells, black walls plate the day before the treatment. Compounds were dissolved in medium at the indicated concentrations and added to cells. Five technical replicates were performed for each treatment. 48 h after treatment, 8 μL of PrestoBlue was added to each well and the cells were incubated at 37 °C for 15 min. Fluorescence (excitation 560 nm, emission 590 nm, 10 nm bandwidth) was recorded using a FLUOstar Omega Microplate Reader (BMG). […]
as §1
For HeLa cells, 5000 cells/well were seeded in complete medium on 96-wells, black walls plate the day before the treatment. […] Fluorescence (excitation 560 nm, emission 590 nm, 10 nm bandwidth) was recorded using a FLUOstar Omega Microplate Reader (BMG).
For Immortalized Human Total Liver Cell Population (IHTLCP), 1850 cells/well were seeded in complete Prigrow III medium (abm) in 384-wells, black walls plate (Perkin Elmer) the day before the treatment. […] Percent viability of IHTLCP cells was calculated as FLUcmp -FLUbg/ FLUDMSO -FLUbg (n=3).
THP1 cell viability was measured according to a previously published procedure.9

For assay [1], the system named is G4 DNA structures in HeLa cells. The assay can be described thus: BG4 immunostaining of G4 DNA structures in HeLa cells. It counts as cell-based, human. The following applies: 24 h. The protocol: The pSANG10-3F-BG4 construct, for expression and purification of recombinant BG4 (BG4), was a gift from Shankar Balasubramanian (Addgene plasmid # 55756). BG4 was purified as previously described.[49] BG4 immunostaining was performed as previously described.[50] Briefly, 60,000 HeLa cells were seeded on 13 mm glass coverslips the day before treatment. Cells were treated for 24 h with the compounds at the indicated concentrations. After treatment, cells were fixed in 2% paraformaldehyde and permeabilized in 0.1% Triton X-100 at room temperature. […] Cell nuclei were focused on the DAPI channel, and BG4-positive foci were counted in a semiautomatic mode using a customized Cell Profiler (Broad Institute) pipeline. […]
Figure S23. Toxicity of 5 and 27 calculated as % viability of IHTLCP cells treated for 72h at the indicated concentrations compared to non-treated cells. […] IC50 and R2 determined with Graph Pad Prism is indicated. […]
Cells were imaged with a LEICA SP8 FALCON confocal microscope equipped with a 63× oil objective (NA 1.40) using identical acquisition settings. Cell nuclei were focused on the DAPI channel, and BG4-positive foci were counted in a semiautomatic mode using a customized Cell Profiler (Broad Institute) pipeline. […]

Turning to `Cc1cc(C)c2nc(Nc3nc(C)cc(NCCCN(C)C)n3)nc(C)c2c1` [Compound 5, N4-(3-(Dimethylamino)propyl)-6-methyl-N2-(4,6,8-trimethylquinazolin-2-yl)pyrimidine-2,4-diamine], in the assay with HeLa cells, the IC50 lay within 0.88 to 1.1 µM. Also, the “number of BG4 foci per cell nucleus” value in assay [1] (2 μM, versus 1 μM and mock-treated cells) is “increased significantly”.
With `Cc1cc(C)c2nc(Nc3nc(C)cc(C)n3)nc(C)c2c1` [Compound 27, N-(4,6-Dimethylpyrimidin-2-yl)-4,6,8-trimethylquinazolin-2-amine], the IC50 with HeLa cells lay in the range of 19 to 34 µM. Further, the “number of BG4 foci per cell nucleus” value in assay [1] (20 μM) is given as “not statistically fully significant”.
